From ChEMBL document CHEMBL1201862, “PubChem BioAssay data set” (2004)
The source made the active and inactive calls.

Experiments:
[1] = target: T1, E3 ubiquitin-protein ligase XIAP (Homo sapiens, UniProt P98170); experiment: Counter Screen using XIAP-Bir3 for Chemical Antagonists of Bir1/2 domains of IAP-family anti-apoptotic proteins. [Related pubchem assays (depositor defined):AID1018, AID1449, AID1514, AID1638, AID1749, AID1750, AID488957, AID488963]
[2] = target: T1, E3 ubiquitin-protein ligase XIAP; experiment: small molecules displacing peptide from XIAP – biochemical, IAP family, fluorescence polarization (AID 1018); format: functional
[3] = target: T2, Ubiquitin-conjugating enzyme E2 N (Homo sapiens, UniProt P61088); format: functional;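 further: Dose-response confirmation in a TR-FRET assay detecting UBC13-driven polyubiquitin chain formation, inhibition measured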
T2 sequence (P61088 whole entry): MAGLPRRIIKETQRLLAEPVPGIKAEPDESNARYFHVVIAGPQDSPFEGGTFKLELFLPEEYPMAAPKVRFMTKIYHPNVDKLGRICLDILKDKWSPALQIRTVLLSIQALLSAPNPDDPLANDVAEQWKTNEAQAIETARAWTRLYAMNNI

[4] = target: Troponin, cardiac muscle (Homo sapiens, UniProt P19429+P45379+P63316); experiment: Fluorescence-based biochemical high throughput dose response assay for activators of the calcium sensitivity of cardiac Regulated Thin Filaments (RTF). [Related pubchem assays (depositor defined):AID493008, AID493018, AID504382, AID504383]; format: protein-complex assay

T1 sequence (P98170 whole entry): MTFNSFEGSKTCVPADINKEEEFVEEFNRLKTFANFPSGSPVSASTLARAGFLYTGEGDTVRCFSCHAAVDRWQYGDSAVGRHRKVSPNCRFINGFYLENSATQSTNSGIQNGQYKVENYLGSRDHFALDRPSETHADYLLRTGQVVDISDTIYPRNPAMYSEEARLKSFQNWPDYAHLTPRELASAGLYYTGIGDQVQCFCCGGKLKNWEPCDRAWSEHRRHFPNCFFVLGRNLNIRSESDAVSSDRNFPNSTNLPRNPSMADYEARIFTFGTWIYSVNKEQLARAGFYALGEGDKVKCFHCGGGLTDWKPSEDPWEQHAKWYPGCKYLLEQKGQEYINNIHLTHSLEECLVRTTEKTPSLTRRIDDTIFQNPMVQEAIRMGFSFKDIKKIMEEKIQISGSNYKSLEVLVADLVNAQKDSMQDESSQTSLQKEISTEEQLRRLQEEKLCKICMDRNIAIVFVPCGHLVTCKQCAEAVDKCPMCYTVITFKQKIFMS

SMILES | IC50 [1] | IC50 [2] | IC50 [3] | EC50 [4]
COc1ccc2c(c1)CCc1c(C(=O)Nc3cc(C)n(Cc4ccc(Cl)cc4)n3)noc1-2 | > 100 µM (inactive) | > 100 µM (not active) | – | –
CCC[C@@H](CN1CCC[C@H]1CN1C(N)=NC[C@@H]1Cc1ccccc1)N1C[C@@H](Cc2ccccc2)N(CCCC2CCCC2)C1=N | – | – | > 20 µM (inactive) | > 71.4 µM (inactive)
COc1cccc(/C(O)=C/C=N/c2cc(C)ccc2O)c1 | > 100 µM (inactive) | > 100 µM (not active) | – | –
CC/C(=N\NS(C)(=O)=O)c1ccccc1 | > 100 µM (inactive) | > 100 µM (not active) | – | –
